# According to Sander's compilation of Henry's law constants (doi:10.1021/je300954s):
# Assay: Henry solubility constant Hcp at 298.15 K (mol/(m3 Pa))
# Details: reference: Lee et al. (2012)
row,SMILES,Henry solubility constant Hcp
1,"Clc1cccc(Cl)c1Cl [1,2,3-trichlorobenzene]",0.008
2,"Clc1cc(Cl)c(Cl)cc1Cl [1,2,4,5-tetrachlorobenzene]",0.0066
3,"c1ccc2c(c1)Cc1ccccc1-2 [2,3-benzindene]",0.32
4,"Cc1c([N+](=O)[O-])c(C)c([N+](=O)[O-])c(C(C)(C)C)c1[N+](=O)[O-] [2,4,6-trinitro-1,3-dimethyl-5-tert-butylbenzene]",0.32
5,c1cc2c3c(cccc3c1)CC2 [acenaphthene],0.26
6,c1ccc2cc3ccccc3cc2c1 [anthracene],0.16
7,c1ccc2c(c1)cc1ccc3cccc4ccc2c1c34 [benzo[a]pyrene],6.2
8,c1ccc2c(c1)-c1cccc3cccc-2c13 [benzo[jk]fluorene],0.34
9,c1ccc2cc3c(cc2c1)-c1cccc2cccc-3c12 [benzo[k]fluoranthene],10
10,CCCCOC(=O)c1ccccc1C(=O)OCc1ccccc1 [butyl benzyl phthalate],100
11,c1ccc2c(c1)ccc1c3ccccc3ccc21 [chrysene],2.1
12,CCCCOC(=O)c1ccccc1C(=O)OCCCC [dibutyl phthalate],9.3
13,CC(=O)c1c(C)c([N+](=O)[O-])c(C(C)(C)C)c([N+](=O)[O-])c1C [musk ketone],3
14,c1ccc2ccccc2c1 [naphthalene],0.06
15,c1ccc2c(c1)ccc1ccccc12 [phenanthrene],0.18
